PMC8534003, “The Chemokine-Based Peptide, CXCL9(74-103), Inhibits Angiogenesis by Blocking Heparan Sulfate Proteoglycan-Mediated Signaling of Multiple Endothelial Growth Factors” (Cancers, 2021)
pKd: −log10 of the molar value.

Legend:
[1] = system: MDA-MB-231 breast cancer xenograft; experiment: In vivo MDA-MB-231 breast cancer mouse model; parameters: species or system human tumor cells in SCID mice; conditions: 800 µg s.c. osmotic pump; text says data not shown
Method: Six-to-eight-week-old female SCID mice were s.c. injected with 6 × 10^6 MDA-MB-231 breast tumor cells (American Type Culture Collection, Manassas, VA) in 200 µL PBS. Three days later, mice were anesthetized as described (vide supra), a dorsal incision was made and an ALZET osmotic pump (model 1002, DURECT Corporation) containing 800 µg/100 µL CXCL9(74-103) or CXCL9(86-103) or 100 µL PBS was s.c. implanted, which delivered a continuous dose over the course of two weeks. Three weeks after tumor cell injection, mice were sacrificed. Tumors were isolated, minced and added to 2 mL of tumor cell medium [TCM; 5% (v/v) FCS in RPMI 1640 + Glutamax (Gibco)]. After centrifugation (500 g, room temperature, 5 min), minced tumors were incubated at 37 °C for 30 min in 3 mL of digestion medium [2 mg/mL collagenase D, 0.1 mg/mL DNAse and 5 U/mL dispase (Corning Life Sciences) in TCM]. Subsequently, tumor fragments were further disrupted using a 1 mL syringe and 18G needle, and 2 mL of digestion medium was added for an additional incubation at 37 °C for 15 min. […] After centrifugation (500 g, 4 °C, 5 min), the pellet was resuspended in 500 µL of 2% (v/v) FCS in PBS and the cells were counted. To assess the anti-angiogenic potential of the CXCL9-derived peptides, the population of endothelial cells within the tumor samples was determined via flow cytometry (vide supra).

[2] = reference not given at the value; read-out: KD, heparin binding; cited from earlier work
Excerpt: In our present study, we wanted to explore the potential of CXCL9(74-103), a high affinity GAG-binding peptide, to interfere with angiogenesis by targeting growth factor-induced signaling cascades and associated processes. […] The obtained KD value lies within the range of the concentrations that were applied in the different in vivo and in vitro assays reported here. FGF-2-mediated proliferation, chemotaxis and sprouting in vitro was diminished by CXCL9(74-103). Also in vivo, CXCL9(74-103) treatment attenuated FGF-2-mediated neovascularization in the Matrigel plug assay. The inhibitory mechanism responsible for countering FGF-2 could be that (1) by direct interaction with FGF-2, CXCL9(74-103) can t ...

Which tumor-associated angiogenesis [1] does the source give for KKVLKVRKSQRSRQKKTT [CXCL9(86-103)] here?
The tumor-associated angiogenesis was “no anti-angiogenic activity”.

What about the pKd [2] of the same sequence?
Its pKd is 6.09.
